Consider 16 molecules from PubChem BioAssay (NCI).

SMILES strings stand for the structures.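 Exposure lasted 48 hours, with cells grown in 96-well plates and compounds tested at five concentrations. At the GI50, growth is halved. The concentration for full growth arrest is given as TGI.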

Assay in all cases: inhibition of tumour cell growth, NCI panel, 48 h
Experiment [1] relates to SNB-19 CNS.
For experiment [2], the system named is HT29 colon.
The subject of experiment [3] is A549 NSCLC.
Experiment [4] concerns UACC-62 melanoma.
The test system of experiment [5] is UO-31 renal.
In experiment [6] the test system is COLO 205 colon.
Experiment [7] deals with HS 578T breast.
Experiment [8] deals with NCI-H460 lung.

As to `C[n+]1c(/C=C/c2c(O)ccc3ccccc23)ccc2ccccc21`, the GI50 was 6.56 µM in experiment [1]; 2.04 µM in experiment [2]; 7.76 µM in experiment [3]; 5.77 µM in experiment [4]; 1.68 µM in experiment [5]; 4.07 µM in experiment [6]. In addition, the GI50 in experiment [7] was 5.3 µM; in experiment [8] it was 6.32 µM. In addition, the TGI in experiment [1] is 14.8 µM; in experiment [2], 7.63 µM; in experiment [3], 16.1 µM; in experiment [4], 12.2 µM; in experiment [5] it was 12 µM; in experiment [6], 10.8 µM. Further, the TGI in experiment [7] was 21.5 µM; in experiment [8], 14.5 µM.

In the case of `Cc1c(O)nc(-n2[nH]c3c(c2=O)CCCC3)[nH]c1=O`, the TGI in experiment [1], in experiment [2], in experiment [4], in experiment [5], in experiment [6] and in experiment [7] was above 100 µM each time. This molecule returned a TGI in experiment [8] above 100 µM.

For the molecule `COC(=O)/C=C\C(C#N)(C#N)N=Cc1ccc(C)cc1`, the TGI in experiment [1] came to 43.1 µM; in experiment [2], 18.7 µM; in experiment [3], 34.3 µM; in experiment [4], 28.4 µM; in experiment [5] it was 7.16 µM; in experiment [6], 4.56 µM. For the same molecule, the TGI came out at 45.3 µM in experiment [7] and 41.1 µM in experiment [8].

With `O=C(NCP(=O)(Oc1ccccc1)Oc1ccccc1)OCc1ccccc1`, the TGI in experiment [1], in experiment [2], in experiment [3], in experiment [4], in experiment [5] and in experiment [6] was above 100 µM each time. Moreover, the TGI in experiment [7] and in experiment [8] was above 100 µM throughout.

Turning to `NCCCN1c2ccccc2Sc2ccc(Cl)cc21`, the TGI in experiment [1] is above 10 µM; in experiment [2] it was above 6.59 µM; in experiment [3] it was above 10 µM; in experiment [4], above 10 µM; in experiment [5], above 10 µM; in experiment [6] it was 3.27 µM. The TGI was above 10 µM in experiment [7] and above 7.31 µM in experiment [8].

Take `CCOS(C)(=O)=O`: the TGI in experiment [1], in experiment [2], in experiment [3], in experiment [4], in experiment [5] and in experiment [6] was above 100 µM in each case. Besides, the TGI in experiment [7] and in experiment [8] was above 100 µM throughout.

As for `C/C(C[n+]1ccccc1)=N\N=C(N)N`, the TGI in experiment [1], in experiment [2], in experiment [3], in experiment [4], in experiment [5] and in experiment [6] was above 100 µM each time. The TGI in experiment [7] and in experiment [8] was above 100 µM throughout.

On to `O=C(CCn1ccnc1[N+](=O)[O-])NCCCn1ccnc1[N+](=O)[O-]`, for which the TGI in experiment [2], in experiment [3], in experiment [4], in experiment [5], in experiment [6] and in experiment [7] was above 100 µM in each case. In experiment [8], this molecule had a TGI above 100 µM.

On to `Oc1cc(Cl)cc2cccnc12`, for which the TGI in experiment [1] is above 100 µM; in experiment [2] it was 32.2 µM; in experiment [3], above 100 µM; in experiment [4] it was 7.49 µM; in experiment [5], above 100 µM; in experiment [6], 26.1 µM. Also, the TGI in experiment [7] was above 48.5 µM; in experiment [8] it was 18.6 µM.

As for `COc1ccc(C2c3cn[nH]c3CC3CCCCC32)cc1` (centres undefined), the TGI in experiment [1] came to 43.5 µM; in experiment [2], 41.4 µM; in experiment [3], 30.9 µM; in experiment [4] it was 24.6 µM; in experiment [5] it was 29.9 µM; in experiment [8], 30.8 µM.

`C=C(C(=O)OCC)C(=O)OCC`: the TGI in experiment [1], in experiment [2], in experiment [3], in experiment [4], in experiment [5] and in experiment [6] was above 100 µM in each case. In addition, the TGI in experiment [7] and in experiment [8] was above 100 µM throughout.

`Cc1nc(C)c(C(=O)NNC(=O)C[N+](C)(C)C)cc1C(=O)NNC(=O)C[N+](C)(C)C`: the TGI in experiment [1], in experiment [2], in experiment [3], in experiment [4], in experiment [5] and in experiment [6] was above 100 µM in each case. For the same molecule, in experiment [8], the TGI is above 100 µM.

Turning to `CSc1cc(-c2cccs2)sc1-c1cc(SC)c(-c2sc(-c3sc(-c4cccs4)cc3SC)cc2SC)s1`, the TGI in experiment [1], in experiment [2], in experiment [3], in experiment [4], in experiment [6] and in experiment [7] was above 100 µM in each case. In experiment [8], this molecule showed a TGI above 100 µM.

For the molecule `S=C1NC2=C(CSC/C2=C\c2cccc(Br)c2)C(c2cccc(Br)c2)N1` (centres undefined), the TGI in experiment [1], in experiment [2], in experiment [3], in experiment [4], in experiment [6] and in experiment [7] was above 100 µM each time. The molecule further returned a TGI in experiment [8] above 100 µM.

In the case of `O=C1c2cc(-c3ccccc3)cnc2S(=O)(=O)N1c1ccc(Br)cc1`, the TGI was 35 µM in experiment [1]; above 100 µM in experiment [2]; 49.3 µM in experiment [3]; above 100 µM in experiment [4]; above 100 µM in experiment [5]; above 100 µM in experiment [6]. The TGI is 70.6 µM in experiment [7] and 75 µM in experiment [8].

For the molecule `COc1ccc(C2OC(c3ccncc3)=NN2C)cc1F` (centres undefined), the TGI in experiment [1], in experiment [2], in experiment [3], in experiment [4], in experiment [5] and in experiment [6] was above 100 µM throughout. Besides, the TGI in experiment [7] and in experiment [8] was above 100 µM each time.
